Results taken from US20090232919A1 (priority 2006, published 2009).
Marks after values point to notes of the source that are not given here.

Experiments:
Type in all cases: in vivo, Male Sprague-Dawley rats
[1] = test system: GSH-Depleted Liver Injury in Rat Model; test: Effect on GSH-depleted (BSO) acetaminophen liver injury in rat model; settings: for necrosis of hepatic cell: orally administrated
Protocol: (§1) Male Sprague-Dawley rats (Samtako Co. Korea) weighing 140-160 g were used in the experiment and were allowed to access to feed (Harlan, teklan, USA) and drinking water. All animals were maintained in a controlled environment with temperatures at 22±2° C. and humidity at 55±5% with 12 hours of light and dark cycles for at least one week prior to use.
3 hours after the end of treatment, 2 mM/kg of BSO (buthionine sulfoximine) was intraperitoneally administrated to the rats to deplete GSH (glutathione) level of the rats. 1 hr after the treatment, the acetaminophen solution prepared in Reference Example (1.2 g/kg) was orally administrated into the rats to induce hepatotoxicity.
24 hours after the inducement, the survival rate of the rats was determined and the abdominal cavity was excised to deliver liver organ to test the effect of the inventive extract and compound obtained in Examples on liver injury.

[2] = test system: Acetaminophen-Induced Liver Injury in Rat Model; test: Orally administrated extract and compound on acetaminophen-induced liver injury in rat model; settings: for increased activity of blood ALT induced by acetaminophen / increased activity of blood LDH induced by acetaminophen: once a day for 4 days; for central necrosis and inflammation of liver (histo-pathological examination): oral, acetaminophen-induced, FIG. 3
Protocol: as §1
24 hours after the end of treatment, the acetaminophen solution prepared in Reference Example (1.2 g/kg) was orally administrated into the rats to induce hepatotoxicity.
24 hours after the treatment, the abdominal cavity was excised to deliver liver organ and blood to test the effect of the inventive extract and compound obtained in Examples on liver injury.
The effect on the indicators of liver injury known in the art, i.e., ALT (R. Rej, Clin. Chem., 24, pp 1971-1979, 1978) and LDH (S. Sherlock et al., Blackwell Science, London, p 23, 2002) activity in rat blood was determined.
The histo-pathological examination on liver organ was performed to determine the effect of inventive extract and compound on the necrosis and inflammation of liver induced by acetaminophen.

[3] = test system: Acetaminophen-Induced Liver Injury in Rat Model; test: Intravenously administrated extract and compound on acetaminophen-induced liver injury in rat model
Protocol: as §1
3 hours after the end of treatment, the acetaminophen solution prepared in Reference Example (1.2 g/kg) was orally administrated into the rats to induce hepatotoxicity.
24 hours after the inducement, the abdominal cavity was excised to deliver liver organ and blood to test the effect of the inventive extract and compound obtained in Examples on liver injury.

[4] = test system: acetaminophen-induced hepatotoxicity in rats; test: Treating effect on liver injury (dosing after acetaminophen); settings: 50 mg/kg orally from 1 hour after acetaminophen, versus PEG400 (40%) negative control; FIG. 7
Protocol: as §1
The acetaminophen solution prepared in Reference Example (1.2 g/kg) was orally administrated into the rats to induce hepatotoxicity. […] All the testing rats had been starved for 24 hours prior to acetaminophen-administration.
24 hours after the inducement, the abdominal cavity was excised to deliver liver organ to test the effect of the inventive compound obtained in Examples on liver injury.

[5] = GSH-depleted (BSO) + acetaminophen, FIG. 6b
[6] = oral dose of 50 mg/kg and 100 mg/kg
[7] = intravenous dose of 5 mg/kg and 15 mg/kg, FIG. 4
[8] = oral dose of 25 mg/kg and 50 mg/kg, FIG. 1

COC(=O)c1cc(OC)c2c(c1-c1c(C(=O)OC)cc(OC)c3c1OCO3)OCO2 [DDB, dimethyl-4,4′-dimethoxy-5,6,5′,6′-dimethylene dioxybiphenyl-2,2′-dicarboxylate]
necrosis of hepatic cell [1, 5]: could not reduce
Central vein neighboring cell necrosis (N) ([2]; APAP, 50 mg/kg, p.o, n = 10): 2.38 ± 0.5^
Hepatic cell degeneration (HD) Central Vein (CV) ([2]; APAP, 50 mg/kg, p.o, n = 10): 0.4 ± 0.2
Hepatic cell degeneration (HD) Limbic region ([2]; APAP, 50 mg/kg, p.o, n = 10): 0
Hepatic cell degeneration (HD) Middle Region ([2]; APAP, 50 mg/kg, p.o, n = 10): 0.2 ± 0.2
Inflammatory cell ([2]; APAP, 50 mg/kg, p.o, n = 10): 0^##
Survival ratio (%) ([2]; APAP, 50 mg/kg, p.o, n = 10): 100%
increased activity of blood ALT induced by acetaminophen [2, 6]: strikingly reduce
increased activity of blood LDH induced by acetaminophen [2, 6]: strikingly reduce
central necrosis and inflammation of liver (histo-pathological examination) [2]: reduced little

O=C1C[C@@H](c2ccc(O)cc2)Oc2cc(O)ccc21 [LQ, liquiritigenin]
Central vein neighboring cell necrosis (N) ([3]; APAP, 5 mg/kg, i. v): 0.2 ± 0.2
Hepatic cell degeneration (HD) Central Vein (CV) ([3]; APAP, 5 mg/kg, i. v): 0.8 ± 0.4
Hepatic cell degeneration (HD) Limbic region ([3]; APAP, 5 mg/kg, i. v): 0
Hepatic cell degeneration (HD) Middle Region ([3]; APAP, 5 mg/kg, i. v): 0.6 ± 0.4
Inflammatory cell ([3]; APAP, 5 mg/kg, i. v): 0
increased activity of blood ALT induced by acetaminophen [3, 7]: significantly reduced
increased activity of blood LDH induced by acetaminophen [3, 7]: significantly reduced
central necrosis and inflammation of liver ([3]; intravenously administrated, FIG. 5): strikingly reduced
necrosis of hepatic cell [4]: more strikingly inhibited
Hepatic cell degeneration (HD) Central Vein (CV) ([1]; APAP + BSO, 15 mg/kg,i.v.): 0.2 ± 0.2
Hepatic cell degeneration (HD) Limbic region ([1]; APAP + BSO, 15 mg/kg,i.v.): 2 ± 0.03
Hepatic cell degeneration (HD) Middle Region ([1]; APAP + BSO, 15 mg/kg,i.v.): 0.2 ± 0.2
Hepatic cell degeneration (HD) Central Vein (CV) ([1]; APAP + BSO, 50 mg/kg, p.o): 1.5 ± 0.5
Hepatic cell degeneration (HD) Limbic region ([1]; APAP + BSO, 50 mg/kg, p.o): 1.5 ± 0.5
Hepatic cell degeneration (HD) Middle Region ([1]; APAP + BSO, 50 mg/kg, p.o): 1.5 ± 0.5
Inflammatory cell ([1]; APAP + BSO, 50 mg/kg, p.o): 0
survival rate ([1]; GSH-depleted (BSO) + acetaminophen, versus 26.7% without treatment): strikingly increased
hepatic injury ([1]; intravenously administrated for 2 days, GSH-depleted, FIG. 6b): apparently inhibits
necrosis of hepatic cell [1, 5]: strikingly reduced
Central vein neighboring cell necrosis (N) ([2]; APAP, 50 mg/kg, p.o, n = 10): 0.8 ± 0.8
Hepatic cell degeneration (HD) Central Vein (CV) ([2]; APAP, 50 mg/kg, p.o, n = 10): 0.8 ± 0.8
Hepatic cell degeneration (HD) Limbic region ([2]; APAP, 50 mg/kg, p.o, n = 10): 0.2 ± 0.2
Hepatic cell degeneration (HD) Middle Region ([2]; APAP, 50 mg/kg, p.o, n = 10): 0.6 ± 0.6
Inflammatory cell ([2]; APAP, 50 mg/kg, p.o, n = 10): 0^##
increased activity of blood ALT induced by acetaminophen [2, 8]: significantly reduced
increased activity of blood LDH induced by acetaminophen [2, 8]: significantly reduced
central necrosis and inflammation of liver (histo-pathological examination) [2]: strikingly reduced
